Reference: patent US7611630B2, “Method and device for evaluation of pharmaceutical compositions” (Bend Research, Inc., priority 2004, dated 2009)
≈ marks a conversion by molar mass, not a printed value.

Tests used:
[1] = physchem
[2] = partition coefficient between organic fluid and water, from solubility ratio
Source text: [formula] where m is the rate at which drug is transported across the membrane (g/sec), Vp is the volume of the permeate solution (cm^3), [D]p is the concentration of drug in the permeate solution (g/cm^3), t is the time (sec), am is the membrane area (cm^2), Pov is the overall permeability coefficient (cm/sec), [Ddissolved]f is the concentration of dissolved drug in the feed solution (g/cm^3), and kp,mem is the partition coefficient of drug between the organic fluid and water, which is defined as the ratio of (1) the concentration of drug in the organic fluid, and (2) the concentration of dissolved neutral drug in the aqueous feed solution when the two solutions are at equilibrium. The partition coefficient can be estimated from the ratio of (1) the solubility of drug in the organic fluid and (2) the solubility of the dissolved drug in the aqueous feed solution.
The organic fluid consisted of 4 mL of decanol, which was added to the permeate reservoir. […] An overhead stirrer was used to stir the decanol permeate solution at 100 rpm.
The organic fluid used in these tests consisted of 5 mL of 20 wt % decanol in decane.

[3] = in vivo oral dosing of OPC, plasma concentration; details: dog, beagle dogs, Fed
Experimental: The compositions tested in vitro in Examples 3-6 were tested in vivo to determine whether the in vitro results correlate with the in vivo results. For Examples 7 and 8, the composition was the same as that used in Example 3 (25% Drug 1:HPMCAS-M dispersion) dosed in the fasted state, and fed state, respectively. For Examples 9 and 10, the composition was the same as that used in Example 4 (crystalline Drug 1) dosed in the fasted state and fed state, respectively.
The compositions were orally dosed to beagle dogs in the form of an oral powder for constitution (OPC) by suspending the composition in about 15 mL of a solution of 3 wt % polyethylene glycol (PEG) with a molecular weight of 3,350 daltons, 0.5 wt % methylcellulose, and 0.15 wt % Polysorbate 80 in sterile water. In each case a sufficient amount of the pharmaceutical composition was used such that the OPC contained 90 mgA of Drug 1. The thus-formed OPCs were then dosed to dogs in either the fed state or fasted state (fasted overnight). Blood was collected from the jugular vein of the dogs before dosing and at various time points after dosing. To 100 μL of each plasma sample, 5 mL of methyl-tert-butyl ether (MTBE) and 1 mL of 500 mM sodium carbonate buffer (pH 9) were added; the sample was vortexed for 1 minute and then centrifuged for 5 minutes. The aqueous portion of the sample was frozen in a dry-ice/acetone bath, and the MTBE layer was decanted and evaporated in a vortex evaporator. Dried samples were reconstituted in 100 μL of mobile phase (33% acetonitrile and 67% of 0.1% formic acid in water). Analysis was carried out by HPLC.
The results of these tests are shown in Table 7, where Cmax,24 is the maximum concentration in the blood plasma during the first 24 hours, Tmax is the time to achieve the maximum concentration in the blood plasma and AUC0-24 is the concentration in the blood plasma area under the curve in the first 24 hours.

[4] = membrane-permeation test with un-treated (hydrophobic) microporous membrane; assay type: in vitro ADME
Experimental: A series of tests were performed using the procedure outlined in Example 1 except that an un-treated ACCUREL® PP 1E microporous polypropylene membrane was utilized in the test apparatus. The contact angle of a drop of water on the feed side of the membrane was greater than about 100°, and thus was hydrophobic. The flux of Drug 1 across the membrane was determined using the procedures outlined in Example 1 as a function of the amount of Drug 1 added to the feed solution. […] Without wishing to be bound by any particular theory or mechanism of action, it is believed that without the hydrophilic surface, particles of crystalline drug contacted the permeate solution (decanol) directly and dissolved into the decanol permeate solution, resulting in high maximum fluxes of Drug 1 across the membrane.

For `CCOC(=O)N1c2ccc(C(F)(F)F)cc2[C@@H](N(Cc2cc(C(F)(F)F)cc(C(F)(F)F)c2)C(=O)OC)C[C@H]1CC` [Drug 1, [2R,4S]4-[(3,5-bis-trifluoromethyl-benzyl)-methoxycarbonyl-amino]-2-ethyl-6-trifluoromethyl-3,4-dihydro-2H-quinoline-1-carboxylic acid ethyl ester], the solubility ([1]; aqueous buffer, aqueous solubility in PBS) was less than 4e-05 mg/mL, the solubility ([1]; organic solvent or mixture, solubility in decanol) was greater than 25 mg/mL and the solubility ([1]; organic solvent or mixture, solubility in organic fluid) was roughly 25 mg/mL (≈ 41.6 mM). The solubility ([1]; water, aqueous solubility (solubility in water)) was less than 4e-05 mg/mL, the “partition coefficient between the organic fluid and water” value [2] was “greater than 650,000” and the “partition coefficient of the drug between the organic fluid and PBS” value [2] was “greater than 650,000”. For the same molecule, the Tmax ([3]; oral OPC 90 mgA Drug 1) was 2.3 ± 1.9 h, the AUC(0-t) ([3]; oral OPC 90 mgA Drug 1, read-out: AUC0-24) was 928 ± 642 µg·h/mL and the Cmax ([3]; oral OPC 90 mgA Drug 1, read-out: Cmax,24) was 191 ± 55 µg/mL. For the same molecule, the “Maximum Flux of Drug” value ([4]; 25 μg/mL Drug 1 added to the feed) was 0.75 μg/cm^2-min, the “Maximum Flux of Drug” value ([4]; 50 μg/mL Drug 1 added to the feed) was 1.5 μg/cm^2-min and the “Maximum Flux of Drug” value ([4]; 80 μg/mL Drug 1 added to the feed) was 4.0 μg/cm^2-min. The “Maximum Flux of Drug” value ([4]; 200 μg/mL Drug 1 added to the feed) was 7.1 μg/cm^2-min, the “Maximum Flux of Drug” value ([4]; 400 μg/mL Drug 1 added to the feed) was 12.6 μg/cm^2-min and the “Maximum Flux of Drug” value ([4]; 700 μg/mL Drug 1 added to the feed) was 26 μg/cm^2-min. The “Maximum Flux of Drug” value ([4]; 1000 μg/mL Drug 1 added to the feed) was 32 μg/cm^2-min.
